According to patent publication US6156762A, “Indolomorphinan derivative and agent for curing and preventing cerebral disorder” (Toray Industries, Inc., priority 1997, dated 2000):

Key:
[1] = system: cultured nerve cells; assay: Action of protecting cultured nerve cells from glutamic acid toxicity (LDH leakage); format: cell-based, Wistar rat; conditions: rat fetal cerebral cortex cells, 10 mM glutamic acid, 24 hours, read-out: ED50 (the source's name)
Source text: It is known that when the blood flow to the brain is temporarily clogged due to cerebral ischemia, hypoxia, or an trauma, delayed cerebral neuronal death is induced [Document: Brain Research, Vol. 239, 57 (1982)]. A possible cause of such damage of the cerebral nerve cells is excitatory toxicity due to an excitatory neutotransmitter such as glutamic acid or the like, which is excessively released with ischemia [Document: Trends in Neuroscience, vol. 10, 299 (1987)]. […] This is a problem to be solved by the invention. This action was evaluated by using the in vitro evaluation system which will be described below.
A fetus was taken from the abdomen of a Wistar female rat on the 18 to 19th day of pregnancy under aseptic conditions, and the head of the fetus was opened to extract the brain. The brain was placed in an ice-cooled L-15 medium, and the cerebral cortex was separated under a microscope. The cerebral cortexes of about 30 rats were cut into pieces, and then suspended in 10 ml of a 0.25% trypsin solution and 0.2 ml of a 0.01% DNase solution, followed by culture at 37° C. for 30 minutes. Then, 2 ml of serum was added to the solution, and immediately the resultant mixture was centrifuged at 120 rpm for 2 minutes to separate the precipitates. To the precipitates was added 7 ml of a DF medium (a medium obtained by adding 20 nM of transferrin, 5 μg/ml of insulin, 20 nM of progesterone,60 nM of selenite, 50 U/ml of penicillin, and 50 U/ml of streptomycin to a mixture equivalent amounts of Dulbecco modified Eagle medium and F-12 medium), followed by 20 pipetting operations using a 10-ml plastic pipette to obtain a cell suspension. The cell suspension was filtered with nylon mesh (pore diameter 43 μm) to fractionate isolated cells. The thus-obtained isolated cells were diluted with a DF medium to a concentration of 6.0×10^5 cells/ml, and 500 μl of the diluted cells was inoculated in each of the 48 wells of a 48-well culture plate precoated with polylysine, followed by culture at 37° C. for 1 day in the presence of 5% of CO2. On the 2nd day, the medium was changed to a new DF medium, and 10 μl of a solution of 0.5M glutamic acid in distilled water was added to each of the wells (the final glutamic acid concentration was 10 mM), followed by further culture at 37° C. for 24 hours in the presence 5% of CO2. A test compound was dissolved in distilled water, 10% or 100% DMSO or 10% methanol, and 5 μl of the solution was added to each of the wells immediately before glutamic acid was added. As an index of nerve cell damage, the enzyme activity of lactic acid dehydrogenase (LDH) leaking from the damaged cells into the medium was measured. For each of the test compounds, the LDH leakage was measured at each of concentrations to determine a dose-response curve by the modified Cochran-Armitige method. The 50% effective dose (ED50) of each of the test compounds we determined from the curve.

[2] = system: middle cerebral artery ischemia model of rat; assay: Infarction inhibiting action in middle cerebral artery ischemia (MCAo-recirculation) model of rat; format: in vivo; conditions: ip, 24 h, 3 mg/kg i.p. 10 minutes before occlusion and 1 hour after recirculation, infarction volume one day after, vs control group, read-out: Rate of inhibition of infarction
Source text: It is also known that, in this way, in the acute stage of cerebral infarction, the lesion proceeds to the peripheral tissue from the core of infarction, and death of the nerve cells is extended with the passage of several days. This possible not only extends and creates grave aftereffects, and causes loss of motor and mental function, but also finally critically influences on the life. As an in vivo experimental model of cerebral infarction which is capable of precisely evaluating the clinical effect of a medicine in conformity with clinical conditions of the disease of a patient of cerebral infarction, the middle cerebral artery occlusion (MCAo)-recirculation model comprising an embolus with a yarn using Wister rates may be used [Document: Japan Journal of Stroke, vol. 8, 1 (1986)]. […] This action was evaluated by applying the MCAo model by the method which will be described below.
In rats of 10 weeks old, after etherization, a median incision of the cervical region was made up to the right carotid artery bifurcation under 1.0% halothane anesthetization with care to preserve the vagus nerves. The common carotid artery and the external carotid artery were separated from the periphery connective tissue with the right carotid artery bifurcation as the center, and each of the arteries was ligated by a 6-0 silk yarn (Eto yarn). Further, a yarn was wound on the internal carotid artery origin in preparation for ligation and fixing after insertion of the embolus. Next, the common carotid artery was incised, and the embolus was inserted from the common carotid artery to the internal carotid artery by about 15 to 16 mm, and ligated and fixed to the internal carotid artery by the silk yarn at the end thereof near the nylon yarn. In this operation, the end of the embolus was inserted into the anterior cerebral artery by about 1 to 2 mm beyond the middle cerebral artery bifurcation, and the inlet of the middle cerebral artery was occluded by the body (resin part) of the embolus for 1 hours. In recirculation, the embolus with a yarn was removed to recirculate the blood flow to the middle cerebral artery. 3 mg/kg of each of test compounds was intraperitoneally administered 10 minutes before occlusion and 1 hour after recirculation of the blood flow. One day after occlusion and recirculation, the whole body was perfused with physiologic saline through the heart, and the brain was extracted. The extracted brain was cooled with ice and water for 5 minutes, and cut at intervals of 2.0 mm to form 7 sections of the cerebral coronal surface. Each of the sections was stained with TTC (Triphenyltetrazolium Chloride), and fixed by a 5% neutral buffer formalin solution. In each of the sections, the infarction area in the right cerebral hemisphere was measured by an image analyzer (Olympus), and the infarction was evaluated by volume (mm^3). The infarction volume was compared with the infarction volume of a control group to calculate the rate of inhibition of infarction.

| Structure (SMILES) | EC50 [1] [µM] | inhibition in vivo at 3 mg/kg [2] [%] |
| --- | --- | --- |
| O=C(NCCCn1c2c(c3ccc4ccccc4c31)C[C@@]1(O)[C@H]3Cc4ccc(O)c5c4[C@@]1(CCN3CC1CC1)[C@H]2O5)c1cccnc1 [Compound 66, 17-cyclopropylmethyl-3,14β-dihydroxy-6,7-dehydro-4,5α-epoxy-6,7,2',3'-[1'-(3-nicotinamidopropyl)-6',7'-benzoindolo]morphinan] | 0.4 | 25 |
| OCCn1c2c(c3ccc4ccccc4c31)C[C@@]1(O)[C@H]3Cc4ccc(O)c5c4[C@@]1(CCN3CC1CC1)[C@H]2O5 [Compound 81, 17-cyclopropylmethyl-3,14β-dihydroxy-6,7-dehydro-4,5α-epoxy-6,7,2',3'-[1'-(2-hydroxyethyl)-6',7'-benzoindolo]morphinan] | 0.067 | 11 |
| O=C(NCCCn1c2c(c3ccccc31)C[C@@]1(O)[C@H]3Cc4ccc(O)c5c4[C@@]1(CCN3CC1CC1)[C@H]2O5)c1ccccc1 [Compound 61, 17-cyclopropylmethyl-3,14β-dihydroxy-6,7-dehydro-4,5α-epoxy-6,7,2',3'-[1'-(3-benzamidopropyl)indolo]morphinan] | 0.14 | 29 |
| Oc1ccc2c3c1O[C@H]1c4c(c5ccc6ccccc6c5n4CCCNC(=S)NCc4ccccc4)C[C@@]4(O)[C@@H](C2)N(CC2CC2)CC[C@]314 [Compound 67, 17-cyclopropylmethyl-3,14β-dihydroxy-6,7-dehydro-4,5α-epoxy-6,7,2',3'-[1'-[3-(N'-benzylthioureido)propyl]-6',7'-benzoindolo]morphinan] | 0.027 | 39 |
| Oc1ccc2c3c1O[C@H]1c4[nH]c5c(cc6c7c(cccc75)-c5ccccc5-6)c4C[C@@]4(O)[C@@H](C2)N(CC2CC2)CC[C@]314 [Compound 19, 17-cyclopropylmethyl-3,14β-dihydroxy-6,7-dehydro-4,5α-epoxy-6,7,2',3'-(5',6"-benzeno-6',7'-benzoindolo)morphinan] | 0.2 | 29 |
| Oc1ccc2c3c1O[C@H]1c4c(c5ccc6ccccc6c5n4Cc4ccccc4)C[C@@]4(O)[C@@H](C2)N(CC2CC2)CC[C@]314 [Compound 69, 17-cyclopropylmethyl-3,14β-dihydroxy-6,7-dehydro-4,5α-epoxy-6,7,2',3'-(1'-benzyl-6',7'-benzoindolo)morphinan] | 0.0093 | 69 |
| Oc1ccc2c3c1O[C@H]1c4[nH]c5cc(C6CCCCC6)ccc5c4C[C@@]4(O)[C@@H](C2)N(CC2CC2)CC[C@]314 [Compound 5, 17-cyclopropylmethyl-3,14β-dihydroxy-6,7-dehydro-4,5α-epoxy-6,7,2',3'-(6'-cyclohexylindolo)morphinan] | 0.12 | 31 |
| NCCCn1c2c(c3ccc4ccccc4c31)C[C@@]1(O)[C@H]3Cc4ccc(O)c5c4[C@@]1(CCN3CC1CC1)[C@H]2O5 [Compound 25, 17-cyclopropylmethyl-3,14β-dihydroxy-6,7-dehydro-4,5α-epoxy-6,7,2',3'-[1'-(3-aminopropyl)-6',7'-benzoindolo]morphinan] | 0.3 | 15 |
| Cn1c2c(c3cc4c5c(cccc5c31)-c1ccccc1-4)C[C@@]1(O)[C@H]3Cc4ccc(O)c5c4[C@@]1(CCN3CC1CC1)[C@H]2O5 [Compound 77, 17-cyclopropylmethyl-3,14β-dihydroxy-6,7-dehydro-4,5α-epoxy-6,7,2',3'-(1'-methyl-5',6"-benzeno-6',7'-benzoindolo)morphinan] | 0.16 | 84 |
| Oc1ccc2c3c1O[C@H]1c4c(c5ccc6ccccc6c5n4CCc4ccccc4)C[C@@]4(O)[C@@H](C2)N(CC2CC2)CC[C@]314 [Compound 80, 17-cyclopropylmethyl-3,14β-dihydroxy-6,7-dehydro-4,5α-epoxy-6,7,2',3'-[1'-(2-phenylethyl)-6',7'-benzoindolo]morphinan] | 0.037 | 29 |
| CCCCCCCc1cccc2[nH]c3c(c12)C[C@@]1(O)[C@H]2Cc4ccc(O)c5c4[C@@]1(CCN2CC1CC1)[C@H]3O5 [Compound 6, 17-cyclopropylmethyl-3,14β-dihydroxy-6,7-dehydro-4,5α-epoxy-6,7,2',3'-(4'-heptylindolo)morphinan] | 0.4 | 33 |
